# Like-named read-outs stand apart in the source and are kept apart here.
# Assays:
# Yorkshire swine [1] = test system: Yorkshire swine
# Description: Yorkshire swine approximately 70 kg in weight were fasted overnight. The animal was sedated and a femoral venous catheter placed to enable frequent blood sampling for glucose monitoring. An endoscope was introduced orally or rectally depending on the tissue being accessed. Oral access for the stomach and small intestine and rectal access for the colon.
# Glucose levels were monitored by frequent blood sampling via the femoral venous catheter with the aid of a glucometer.
# This was administered with the use of a Carr-Locke needle which is 500 μm in length and 514 μm in diameter. Frequent blood glucose monitoring was performed via the use of a central line (femoral venous catheter).
# To further validate the delivery of biologics at different segment we further evaluated the use of microinjection in the duodenum (the first part of the small intestine). Here the pH ranges from 5.5-7 and there are a broader range of proteases.
# This was again administered with the use of the Carr-Locke needle. Frequent blood glucose monitoring was performed via the use of a central line (femoral venous catheter).
# This was administered with the use of the microneedle prototype shown previously. Frequent blood glucose monitoring was performed via the use of a central line (femoral venous catheter).
# Yorkshire swine [2] = conditions: 100 units in 10 ml saline enema
# Description: In order to evaluate the efficacy of abrasion and drug delivery a Yorkshire swine animal 70 kg in weight was fasted overnight. The animal was sedated and a central venous line was placed for frequent blood sampling. The rectum was cleansed with a tap water enema and an abrasion created in the rectal mucosa.
# [3] = cited from earlier work
# [4] = Visualization study: dye injection into 1.5% porcine gelatin with the microneedle prototype device; conditions: 0.025% dye
# Description: Using porcine gelatin, the effects of a microneedle prototype device was evaluated. Specifically, porcine gelatin was prepared at a concentration of 1.5% to mimic the density of gastrointestinal tissue. The gelatin provided the added benefit of allowing the application site to be visualized. A prototype device filled with a solution of 0.025% allura red dye was applied to the gel and a volume of 100-300 microliters of dye was injected. A second device lacking the needles was also used as a control.
# This highlights the efficacy of the microneedle device in deeper tissue penetration of the model drug compared to simple diffusion (simulated by the control device shown in FIGS. 10 A and B).
compound,measurement,setting,value
insulin aspart,Hypoglycemic response (blood glucose versus post-injection time),"Yorkshire swine [1]; colon, 20 units, microneedle prototype, one experiment",hypoglycemic response
same,Hypoglycemic response (blood glucose versus post-injection time),"Yorkshire swine [1]; duodenum, 10 units, Carr-Locke needle, one experiment",hypoglycemic response
same,Time to hypoglycemic response after administration,"Yorkshire swine [1]; insulin injections, stomach, duodenum",20 to 40 min
same,Hypoglycemic response,"Yorkshire swine [1]; insulin release without the use of needles (control, 10 units)",did not induce a hypoglycemic (low glucose) response
same,Hypoglycemic response (blood glucose versus post-injection time),"Yorkshire swine [1]; stomach (transgastric), 10 units, Carr-Locke needle, 3 separate experiments",hypoglycemic response
same,Glucose levels after insulin enema,Yorkshire swine [2]; absence of an abrasion,did not decrease
same,Time to decrement in serum glucose after administration,Yorkshire swine [2]; rectal mucosa with abrasion,20 to 30 min
same,Serum glucose level after insulin enema,"Yorkshire swine [2]; rectal mucosa with abrasion, baseline glucose 80-82 mg/dL",60 mg/dL
CC[C@H](C)[C@H](NC(=O)[C@@H]1CCCN1C(=O)CNC(=O)[C@H](Cc1ccccc1)NC(=O)[C@H](CC(N)=O)NC(=O)[C@H](CC(N)=O)NC(=O)[C@H](CO)NC(=O)[C@H](CO)NC(=O)[C@H](Cc1c[nH]cn1)NC(=O)[C@@H](NC(=O)[C@H](CC(C)C)NC(=O)[C@H](Cc1ccccc1)NC(=O)[C@H](CC(N)=O)NC(=O)[C@H](C)NC(=O)[C@H](CC(C)C)NC(=O)[C@H](CCCNC(=N)N)NC(=O)[C@H](CCC(N)=O)NC(=O)[C@@H](NC(=O)[C@H](C)NC(=O)[C@@H]1CSSC[C@H](NC(=O)[C@@H](N)CCCCN)C(=O)N[C@@H](CC(N)=O)C(=O)N[C@@H]([C@@H](C)O)C(=O)N[C@@H](C)C(=O)N[C@@H]([C@@H](C)O)C(=O)N1)[C@@H](C)O)C(C)C)C(=O)N[C@@H](CC(C)C)C(=O)N1CCC[C@H]1C(=O)N1CCC[C@H]1C(=O)N[C@H](C(=O)N[C@@H](CC(N)=O)C(=O)N[C@H](C(=O)NCC(=O)N[C@@H](CO)C(=O)N[C@@H](CC(N)=O)C(=O)N[C@H](C(=O)N[C@@H](Cc1ccc(O)cc1)C(N)=O)[C@@H](C)O)C(C)C)[C@@H](C)O [Pramlintide],Known Toxic Levels,[3]; in vivo,>600 µg/kg/day
"COc1cc(S(=O)(=O)[O-])c(C)cc1N=Nc1c(O)ccc2cc(S(=O)(=O)[O-])ccc12.[Na+].[Na+] [allura red dye, allura red]",Permeation of dye into gel matrix,[4]; control device lacking needles,expulsion of the dye over the gel surface
same,Permeation of dye into gel matrix,"[4]; device with microneedles, 100-300 microliters",enabled permeation of the dye into the gel matrix
Infliximab,Known Toxic Levels,[3]; no direct toxic effect observed,>20 mg/kg no
CC[C@H](C)[C@@H]1NC(=O)[C@H](Cc2ccc(O)cc2)NC(=O)[C@@H](N)CSSC[C@@H](C(=O)N2CCC[C@H]2C(=O)N[C@@H](CC(C)C)C(=O)NCC(N)=O)NC(=O)[C@H](CC(N)=O)NC(=O)[C@H](CCC(N)=O)NC1=O [Oxytocin],Known Toxic Levels,[3]; in vivo,">10,000 units/kg"
Etanercept,Known Toxic Levels,[3]; in vivo,>1000 mg/animal
CCCC1O[C@@H]2C[C@H]3[C@@H]4CCC5=CC(=O)C=C[C@]5(C)[C@H]4[C@@H](O)C[C@]3(C)[C@]2(C(=O)CO)O1 (some centres unmarked) [Budesonide],Known Toxic Levels,[3]; in vivo,3200 mg/kg
Erythropoietin,Known Toxic Levels,[3]; in vivo,">100,000 units"
Rituximab,Known Toxic Levels,[3]; in vivo,>5 g/animal
